Assay results: US20190008919A1, “ETA RECEPTOR ANTAGONISTS AND METHODS OF USING THE SAME TO TREAT CARDIOVASCULAR DISORDERS AND DISEASE” (priority 2017, published 2019)
Non-standard residues stand in square brackets, D forms with d. Residues, ends and D or L forms follow the SMILES beside them.

How the values were obtained:
[1] = system: aortic stiffening-induced hypertension rat model; assay: Pressure, pulse wave velocity and peripheral flow measurement in aortic NCR (aortic stiffening-induced hypertension) rats; type: in vivo, Wistar rats
Protocol: (§1) Twenty seven Wistar rats at age of 17-18 weeks were randomly divided into three groups. Group 1 (n=10) underwent aortic NCR for 12 weeks and was terminated at the end of 12 weeks. Group 2 (n=9) underwent aortic NCR for 12 weeks, then received continuous BQ-123 infusion for 3 weeks. The animals were terminated at the end of 15 weeks. Group 3 (n=8) was used as the sham-operated control for groups 1 and 2. All animal experiments were performed in accordance with national and local ethical guidelines, including the Institute of Laboratory Animal Research guidelines, Public Health Service policy, the Animal Welfare Act, as approved by Institutional Animal Care and Use Committee at California Medical Innovations Institute, San Diego.
Animals were anesthetized with 1-2% isoflurane by air inhalation. A pressure catheter (Mikro-tip SPR-407, Millar Instruments, Houston, Tex.,) was inserted in the aortic arch (proximal site) via the right carotid artery. Heparin (200 U/ml) was used to prevent blood clots in the vessels. Another pressure transducer (Mikro-tip SPR-671) was advanced retrogradely into the abdominal aorta (distal site) via the right femoral artery. The central and peripheral aortic blood pressure waveforms were recorded from these two locations simultaneously during the procedure. A branch (400˜500 μm in diameter) of the left femoral artery was exposed carefully. A flow probe (0.5 mm ID) connected to a flow meter (Transonic systems, Ithaca, N.Y.) was then placed around it and local flow rate was recorded for at least 30 minutes. Following the measurement of blood pressure, the small cuts for cannulation on the carotid and femoral arteries were repaired by 11-0 sutures to restore flow.
A laparotomy (about 3.0 cm) was performed. The distal abdominal aorta between renal and common iliac artery was carefully exposed and tissue glue (cyanoacrylate formulation, Dermabond, Ethicon, NJ) was coated over a length of the aorta. After allowing 5-10 minutes for the glue to harden, a stiff coating formed and covered the anterior and bilateral sides of the aorta with an axial length of 3.0-3.5 cm. The sham group underwent an identical surgical procedure, but without application of glue on the aorta (i.e., the same amount of glue was left near the aorta area with no direct contact with the aorta).
(§2) Rats in group 2 received continuous BQ-123 infusion (1 mg/kg/day) for 21 days through Osmotic minipump implantation after 12 weeks of aortic NCR. BQ-123 (Peptides International Inc., Louisville, Ky.) was dissolved in saline containing 0.5% dimethyl sulphoxide (DMSO). The Osmotic minipump (model 2002, Durect Corporation, CA) was subcutaneously implanted on the side of abdomen in rats. Sham rats received continuous saline infusion through Osmotic minipumps for 21 days.
Pulse wave velocity (PWV) calculation is based on the difference in arrival times of the pressure wave at the proximal (aorta arch) and distal (abdominal aorta) locations. Since the pressure transducer is visible on radiographs, the propagation distance between the proximal and distal site was obtained by imaging the animal with the two transducers implantation under an X-ray machine (Philips Fluoroscopy System, FIG. 1). PWV (m/s) was calculated by dividing the propagation distance by the difference among the two arrival times (transit time).
The reverse to forward flow ratio (indicative of the extent of peripheral flow reversal) in peripheral small artery was calculated as: R/F ratio=Qrev/Qfwd×100(%), where Qrev and Qfwd are the reverse and forward peak flow rate, respectively (as shown in FIG. 3A). […]

[2] = system: peripheral small arteries; assay: Endothelial function of peripheral small arteries (isovolumic myograph, ex vivo) after in vivo treatment; parameters: species or system Wistar rats
Protocol: as §2
(§3) After measurement of pressure and flow from a branch of femoral artery, water-resistant carbon particles were used to mark the same vessel segment (400˜500 μm in diameter) to measure axial changes as described in a publication by Guo et al. The external geometry of the arterial segment was photographed to obtain the outer diameter and in vivo axial length with the aid of a dissecting microscope. The arterial segment was than harvested for endothelial function and mechanical testing and histological analysis. The heart was harvested to calculate the wet weight.
An isovolumic myograph recently developed by our group was used to evaluate the endothelium-dependent vasorelaxation. The small peripheral arterial segment was cannulated on both ends in a physiological bath with HEPES physiologic saline solution (HEPES-PSS, concentration in mmol/l: 142 NaCl, 4.7 KCl, 2.7 sodium HEPES, 3 HEPES acid, 0.15 NaHPO4, 1.17 MgSO4, 2.79 CaCl^2, and 5.5 glucose, solution gassed by 95% O2 plus 5% CO2) and stretched to in situ length. The pressure and external diameter were measured with a pressure transducer (Mikro-Tip SPR-524; Millar Instruments) and a digital diameter tracking (DiamTrak v3+; Australia), respectively. The vessel segment was pre-constricted with phenylephrine (PE) by a series of doses (10^−10 to 10^−5 mol/L in the PSS), and then relaxed with acetylcholine (ACh) by a series of doses: 10^−10 to 10^−5 mol/L. The endothelium-independent relaxation to sodium nitroprusside (SNP, 10^−5 mol/L) was measured to verify the sensitivity of vascular smooth muscle to NO. The overall contractility of vessel was tested with potassium chloride (KCl) at 60 mmol/L. Contraction was expressed as percentage of the response to KCl. Relaxation was expressed as percentage of pre-contraction to PE.
Results were shown as mean±standard error of mean (mean±SEM). The significance of the differences between two groups was evaluated by either t-test or One-way ANOVA. For each dose-response curve to agents, the maximum effect (Emax) and bolus dose that produced half-maximal relaxation or contraction (expressed as pED50) were obtained by fitting the experimental data with a sigmoidal dose response curve. A least-squares fitting function, FindFit (Wolfram Mathematica software, Illinois, USA) was used. Significant differences among the three groups for dose-dependent curves (FIGS. 10B and 7A) were determined by Two-way ANOVA (SigmaStat, California, USA). The results were considered statistically significant when P<0.05 (2-tailed).

[3] = system: peripheral small arteries; assay: Mechanical tests and morphometry of peripheral small arteries; type: in vivo, Wistar rats
Protocol: as §2, §3
The peripheral arterial segment was cannulated on both ends and fully relaxed in Ca^2+ free HEPES-PSS. The arterial segment was preconditioned with five cyclic changes in pressure from 0 to 140 mmHg. The pressure was then increased in 20 mmHg step increments from 20 to 140 mmHg in a staircase manner. The passive pressure-diameter relation was recorded. After the mechanical testing, the vessel segment was cut transversely into three or four rings. Each ring was photographed in the no-load state and then cut radially by a scissor to reveal the zero-stress state. The cross section of each sector was photographed 30 minutes after the radial cut (details in Guo et al.). The morphological measurements of the in vitro axial length, inner and outer circumference, wall thickness (WT), and area in the no-load and zero-stress state were made from the images using a morphometric analysis system (SigmaScan).
The loaded inner radius of vessel was determined from the incompressibility assumption. The incompressibility condition for a cylindrical vessel can be expressed as:
where ro and ri are the outer and inner radii at the loaded state, respectively. λZ=l/lo is the stretch ratio in the axial direction where l and lo are the vessel length in the loaded and no-load state, respectively and Ao is the wall area in the no-load state. The wall thickness, WT at the loaded state was computed as the difference between the outer and inner radius of the vessel at various pressures as:
The volume compliance (CV) of the artery was determined by the slope of the pressure-volume relationship; i.e., CV=ΔV/ΔP. […] The normalized CSA compliance (CCSA) was determined similarly as CCSA=ΔCSA/(ΔP·CSA) at the physiological pressure as described in our previous publication.

[4] = system: peripheral small arteries; assay: Elastin and collagen contents by multiphoton microscopy; type: in vivo, Wistar rats
Protocol: as §2
The elastin and collagen in small peripheral arteries were imaged by using a Multiphoton microscope (MPM) as described by Huan et al. Briefly, the arterial segment was fixed with 4% paraformaldehyde in phosphate buffer for 4 hours. The vessel was then transferred to a cryomold containing OCT embedding medium, and frozen in liquid nitrogen. Frozen transverse sections (7 μm) were cut onto glass slide and visualized by the MPM with a combined SHG/TPEF setup (Zeiss LSM 710 NLO). Serial optical sections were simultaneously captured by using the 520 nm line for elastin and the 415 nm line for collagen. All the images were taken under identical conditions of laser intensity, brightness, and contrast. Fluorescence intensity values were used as estimates of elastin and collagen concentration and quantitatively analyzed by Image J.

[5] = system: ET-1; assay: Serum ET-1 level (ELISA); type: in vivo, Wistar rats; details: FIG. 6; not significantly different from the sham
Protocol: as §2
Blood samples were collected in ethylenediaminetetraacetic acid (EDTA) tubes for all experimental rats. After centrifugation at 5000 rpm and 4° C. for 15 min, serum was immediately separated and stored at −80° C. until analysis. The circulating level of ET-1 in serum was measured by ELISA kit (R&D system, MN).

[6] = system: left ventricle; assay: Heart and left ventricle weights; type: in vivo, Wistar rats; details: compared to sham
Protocol: as §2, §3

[7] = Body weight; type: in vivo, Wistar rats; details: Exp rats, 12 weeks aortic NCR then BQ-123 1 mg/kg/day continuous infusion 3 weeks; mean ± SEM
Protocol: as §1, §2

[8] = Exp rats, 12 weeks aortic NCR then BQ-123 1 mg/kg/day infusion 3 weeks, mean ± SEM
[9] = branch of femoral artery, Exp rats, 12 weeks aortic NCR then BQ-123 infusion 3 weeks, mean ± SEM

CC(C)C[C@@H]1NC(=O)[C@@H](C(C)C)NC(=O)[C@@H]2CCCN2C(=O)[C@@H](CC(=O)O)NC(=O)[C@@H](Cc2c[nH]c3ccccc23)NC1=O [BQ-123, 2-[(3R,6R,9S,12R,15S)-6-(1H-indol-3-ylmethyl)-9-(2-methylpropyl)-2,5,8,11,14-pentaoxo-12-propan-2-yl-1,4,7,10,13-pentazabicyclo[13.3.0]octadecan-3-yl]acetic acid] (cyclo(L[dW][dD]P[dV]))
Central aortic blood pressure, Diastolic pressure [1, 8]: 94.8 ± 3.2 mmHg | Central aortic blood pressure, Mean pressure [1, 8]: 115.0 ± 3.8 mmHg | Central aortic blood pressure, Pulse pressure [1, 8]: 38.5 ± 1.8 mmHg | Central aortic blood pressure, Systolic pressure [1, 8]: 133.3 ± 3.9 mmHg | Heart rate [1, 8]: 353.0 ± 6.9 beats/min | PWV [1, 8]: 4.1 ± 0.3 m/s | Peripheral aortic blood pressure, Diastolic pressure [1, 8]: 87.6 ± 3.5 mmHg | Peripheral aortic blood pressure, Mean pressure [1, 8]: 108.0 ± 4.5 mmHg | Peripheral aortic blood pressure, Pulse pressure [1, 8]: 45.8 ± 2.1 mmHg | Peripheral aortic blood pressure, Systolic pressure [1, 8]: 133.4 ± 5.1 mmHg | wall shear stress (WSS) in peripheral small arteries ([1]; FIG. 3B, after 3 weeks BQ-123 in NCR rats): returned to the sham level | Reverse/forward flow ratio ([1]; Qrev/Qfwd×100, Exp rats, 12 weeks aortic NCR then BQ-123 infusion 3 weeks, mean ± SEM): 7.6 ± 1.4 % | Peripheral flow rate, Forward flow [1, 9]: 0.34 ± 0.04 mL/min | Peripheral flow rate, Mean flow [1, 9]: 0.099 ± 0.008 mL/min | Peripheral flow rate, Reverse flow [1, 9]: -0.026 ± 0.007 mL/min | endothelium-dependent vasodilation in response to acetylcholine (dose-response curve) ([2]; FIG. 7A, vs aortic NCR group, p<0.05, 2-way ANOVA): totally recovered | contractions to phenylephrine (PE) ([2]; FIG. 10B, vs sham and aortic NCR): did not affect this response | vascular contraction to potassium chloride (KCl) ([2]; KCl 60 mmol/L, among the 3 groups, FIG. 10C): no significant difference | maximal endothelium-independent relaxation to sodium nitroprusside (SNP) ([2]; SNP 10^−5 mol/L, arteries of BQ-123 treated NCR rats (sham 96%, NCR 74%)): 98% | Emax ([2]; acetylcholine concentration-response curve, PE pre-contracted peripheral small arteries of BQ-123 treated NCR rats, mean ± SEM): 88.5 ± 7.9% | Phenylephrine Emax (%) ([2]; phenylephrine concentration-response curve, peripheral small arteries of BQ-123 treated NCR rats, mean ± SEM): 72.4 ± 6.3 negative log mol/L | wall thickness (WT, intima-media thickness) ([3]; compared to NCR group, not statistically significant, FIG. 4A): downward trend | wall thickness-to-radius (WTTR) ratio ([3]; compared to NCR group, not statistically significant, FIG. 4B): downward trend | normalized CSA compliance ([3]; compared with NCR group p=0.02, not fully restored vs sham (p=0.06), FIG. 4C): significantly increased | outer diameter of the peripheral small arteries ([3]; sham, NCR and BQ-123 groups, FIG. 10A): no changes | total collagen content of peripheral arteries ([4]; FIG. 5B, after 3 weeks BQ-123): returned to normal levels | elastin to collagen ratio ([4]; FIG. 5C, after 3 weeks of treatment): restored to normal levels | total elastin contents ([4]; between NCR, BQ-123 treatment and sham groups): No difference | serum ET-1 level [5]: restored to pre-intervention level | wet weights of the hearts [6]: did not change | LV weight/heart weight ratio (LV/HW) ([6]; p<0.05, FIG. 2): significant increase | Body Weight [7]: 641.3 ± 18.9 g
